From ChEMBL document CHEMBL1201862, “PubChem BioAssay data set” (2004)
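Exposure lasted 48 hours, with cells grown in 96-well plates and compounds tested at five concentrations. GI50 = concentration required for 50% inhibition of growth.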 Activity calls are given as the source filed them. No stated cut-off is given here; in the data, active = GI50 up to about 1.1 µM and inactive = higher.

Assays:
Experiment in all cases: inhibition of tumour cell growth, NCI panel, 48 h
786-0 = system: 786-0
UACC-62 = system: UACC-62
NCI-H460 = system: NCI-H460
OVCAR-8 = system: OVCAR-8
SF-268 = system: SF-268
DMS-114 = system: DMS-114
HOP-62 = system: HOP-62
IGROV-1 = system: IGROV-1
HCT-116 = system: HCT-116
TK-10 = system: TK-10
COLO 205 = system: COLO 205
CCRF-CEM = system: CCRF-CEM
SN12C = system: SN12C
HOP-18 = system: HOP-18
U-251 = system: U-251
ACHN = system: ACHN
K562 = system: K562
HCC 2998 = system: HCC 2998
MOLT-4 = system: MOLT-4
M14 = system: M14
M19-MEL = system: M19-MEL
CAKI-1 = system: CAKI-1
KM-20L2 = system: KM-20L2
RPMI-8226 = system: RPMI-8226
HOP-92 = system: HOP-92
UACC-257 = system: UACC-257
OVCAR-4 = system: OVCAR-4
SF-539 = system: SF-539
DMS-273 = system: DMS-273
UO-31 = system: UO-31
SNB-19 = system: SNB-19
SF-295 = system: SF-295
SK-MEL-5 = system: SK-MEL-5
NCI-H522 = system: NCI-H522
A549 = system: A549
SK-MEL-28 = system: SK-MEL-28
SW-620 = system: SW-620
KM12 = system: KM12
OVCAR-3 = system: OVCAR-3
HT-29 = system: HT-29
Malme-3M = system: Malme-3M
SK-OV-3 = system: SK-OV-3
HCT-15 = system: HCT-15
DLD-1 = system: DLD-1
LXFL 529 = system: LXFL 529
SK-MEL-2 = system: SK-MEL-2
A498 = system: A498
OVCAR-5 = system: OVCAR-5
NCI-H226 = system: NCI-H226
NCI-H23 = system: NCI-H23
SNB-75 = system: SNB-75
EKVX = system: EKVX
HL-60 = system: HL-60
SNB-78 = system: SNB-78

O=c1c2ccccc2nc(-c2ccccc2)n1NCC1(O)OCC(O)C(O)C1O (centres undefined)
GI50 (786-0): > 100 µM (inactive)
GI50 (UACC-62): > 100 µM (inactive)
GI50 (NCI-H460): 30.1 µM (inactive)
GI50 (OVCAR-8): > 100 µM (inactive)
GI50 (SF-268): > 100 µM (inactive)
GI50 (DMS-114): > 100 µM (inactive)
GI50 (HOP-62): > 100 µM (inactive)
GI50 (IGROV-1): > 100 µM (inactive)
GI50 (HCT-116): > 100 µM (inactive)
GI50 (TK-10): > 100 µM (inactive)
GI50 (COLO 205): > 100 µM (inactive)
GI50 (CCRF-CEM): 33.1 µM (inactive)
GI50 (SN12C): > 100 µM (inactive)
GI50 (HOP-18): > 100 µM (inactive)
GI50 (U-251): 87.3 µM (inactive)
GI50 (ACHN): 95.7 µM (inactive)
GI50 (K562): > 100 µM (inactive)
GI50 (HCC 2998): > 100 µM (inactive)
GI50 (MOLT-4): 14 µM (inactive)
GI50 (M14): > 100 µM (inactive)
GI50 (M19-MEL): 49.8 µM (inactive)
GI50 (CAKI-1): 47.3 µM (inactive)
GI50 (KM-20L2): > 100 µM (inactive)
GI50 (RPMI-8226): 52.7 µM (inactive)
GI50 (HOP-92): > 100 µM (inactive)
GI50 (UACC-257): > 100 µM (inactive)
GI50 (OVCAR-4): > 100 µM (inactive)
GI50 (SF-539): > 100 µM (inactive)
GI50 (DMS-273): 60.5 µM (inactive)
GI50 (UO-31): > 100 µM (inactive)
GI50 (SNB-19): > 100 µM (inactive)
GI50 (SF-295): 49.2 µM (inactive)
GI50 (SK-MEL-5): 48 µM (inactive)
GI50 (NCI-H522): > 100 µM (inactive)
GI50 (A549): 81.3 µM (inactive)
GI50 (SK-MEL-28): > 100 µM (inactive)
GI50 (SW-620): 87.5 µM (inactive)
GI50 (KM12): > 100 µM (inactive)
GI50 (OVCAR-3): > 100 µM (inactive)
GI50 (HT-29): > 100 µM (inactive)
GI50 (Malme-3M): > 100 µM (inactive)
GI50 (SK-OV-3): > 100 µM (inactive)
GI50 (HCT-15): > 100 µM
GI50 (DLD-1): > 100 µM (inactive)
GI50 (LXFL 529): > 100 µM (inactive)
GI50 (SK-MEL-2): > 100 µM (inactive)
GI50 (A498): > 100 µM (inactive)
GI50 (OVCAR-5): > 100 µM (inactive)
GI50 (NCI-H226): > 100 µM (inactive)
GI50 (NCI-H23): > 100 µM (inactive)
GI50 (SNB-75): 50 µM (inactive)
GI50 (EKVX): > 100 µM (inactive)
GI50 (HL-60): 33 µM (inactive)
GI50 (SNB-78): > 100 µM (inactive)
